Source: patent US10206906B2, “Synergistic combination of a phenolic-rich maple syrup extract and an antibiotic” (priority 2015, dated 2019)
≈ marks a conversion by molar mass, not a printed value.

Tests used:
[1] = tested on: proton motive force-driven multidrug efflux pump of E. coli CFT073; test: Ethidium bromide (EtBr) efflux assay; type: cell-based, Escherichia coli; conditions: PRMSE, catechol at 0.25 times the MIC; CCCP 100 μM; untreated cells 36.9
Description: (§1) An overnight grown culture of each strain is diluted 1:100 using MHB-II broth to a final volume of 10 mL and grown to an OD600 of 0.8-1.0 (at 37° C., 150 rpm). […] The tubes are incubated for 1 h (37° C., 150 rpm). The inoculum is then adjusted to 0.4 OD600 with MHB-II broth containing 5 μM EtBr and 2 mL aliquots of this mixture are pelleted (5000×g, 10 min at 4° C.). The pellets are incubated on ice immediately, resuspended in 1 mL of MHB-II, and aliquoted (200 μL) into a polystyrene 96 well black, clear-bottom plate (Corning™, Fisher Scientific, ON, Canada). EtBr efflux from the cells is monitored at room temperature using the microplate reader (ex/em 530/600 nm). Readings are taken at 5 min intervals for 1 h to monitor efflux pump activity. The background fluorescence of the medium is subtracted from all measurements and the assay is repeated independently in triplicate.

[2] = tested on: proton motive force-driven multidrug efflux pump of P. aeruginosa PAO1; test: Ethidium bromide (EtBr) efflux assay; type: cell-based, Pseudomonas aeruginosa; conditions: PRMSE, catechol at 0.25 times the MIC; CCCP 100 μM; untreated cells 37.6
Description: as §1

[3] = tested on: proton motive force-driven multidrug efflux pump of P. aeruginosa PA14; test: Ethidium bromide (EtBr) efflux assay; type: cell-based, Pseudomonas aeruginosa; conditions: PRMSE, catechol at 0.25 times the MIC; CCCP 100 μM; untreated cells 30.9
Description: as §1

[4] = tested on: proton motive force-driven multidrug efflux pump of P. mirabilis HI4320; test: Ethidium bromide (EtBr) efflux assay; type: cell-based, Proteus mirabilis; conditions: PRMSE, catechol at 0.25 times the MIC; CCCP 100 μM; untreated cells 35.9
Description: as §1

[5] = tested on: cell membrane of P. mirabilis HI4320; test: BacLight membrane integrity assay; type: cell-based, Proteus mirabilis; conditions: PRMSE, catechol at 4 × MIC for 10 min; CTAB 10 μM; untreated = 100
Description: (§2) The BacLight kit (L-13152, Invitrogen™, Life Technologies Inc., Canada) is used to assess cell membrane damage. Overnight bacterial cultures are diluted 1:40 in fresh MHBII broth to a final volume of 5 mL, grown to an OD600 of 0.5-0.6, washed with filter-sterilized 10 mM phosphate buffered saline (PBS, pH 7.0) and resuspended in 1/10 of the original volume. […] Cultures are incubated at room temperature (21±2° C.) on a tube rocker for 10 min. At the end of the incubation period, an aliquot is taken for CFU counts and the remaining suspension is washed with 10 mM PBS and resuspended to an OD600) of 0.3. An aliquot (100 μL) of each bacterial suspension is removed and added to a 96-well, black, clear-bottom plate (Corning™, Fisher Scientific, ON, Canada) along with an equal volume of the BacLight™ reagent (2× stock solution, L13152, Invitrogen™, Life Technologies Inc., Canada) and the plates are incubated for 10 min at room temperature in the dark. At the end of the incubation period, fluorescence intensity is recorded for both kit components, SYTO-9 (ex/em 485/530 nm) and propidium iodide (ex/em 485/645 nm), using the microplate reader. Fluorescence readings from samples are normalized to the values obtained from untreated control to determine the ratio of membrane compromised cells to cells with intact membrane. […]

[6] = tested on: cell membrane of E. coli CFT073; test: BacLight membrane integrity assay; type: cell-based, Escherichia coli; conditions: PRMSE, catechol at 4 × MIC for 10 min; CTAB 10 μM; untreated = 100
Description: as §2

[7] = tested on: E. coli CFT073; test: Bacterial colony forming ability (CFU counts after exposure); type: cell-based, Escherichia coli; conditions: log decrease vs untreated control; 4 × MIC, 10 min; CTAB 10 μM
Description: (§3) The BacLight kit (L-13152, Invitrogen™, Life Technologies Inc., Canada) is used to assess cell membrane damage. Overnight bacterial cultures are diluted 1:40 in fresh MHBII broth to a final volume of 5 mL, grown to an OD600 of 0.5-0.6, washed with filter-sterilized 10 mM phosphate buffered saline (PBS, pH 7.0) and resuspended in 1/10 of the original volume. […] Cultures are incubated at room temperature (21±2° C.) on a tube rocker for 10 min. At the end of the incubation period, an aliquot is taken for CFU counts and the remaining suspension is washed with 10 mM PBS and resuspended to an OD600) of 0.3. An aliquot (100 μL) of each bacterial suspension is removed and added to a 96-well, black, clear-bottom plate (Corning™, Fisher Scientific, ON, Canada) along with an equal volume of the BacLight™ reagent (2× stock solution, L13152, Invitrogen™, Life Technologies Inc., Canada) and the plates are incubated for 10 min at room temperature in the dark. At the end of the incubation period, fluorescence intensity is recorded for both kit components, SYTO-9 (ex/em 485/530 nm) and propidium iodide (ex/em 485/645 nm), using the microplate reader. Fluorescence readings from samples are normalized to the values obtained from untreated control to determine the ratio of membrane compromised cells to cells with intact membrane. Cetyltrimethylammonium bromide (CTAB, Sigma-Aldrich Canada), a cationic detergent that is known to cause membrane damage, is used at concentration of 10 μM as a positive control for membrane disruption.

[8] = tested on: P. aeruginosa PAO1; test: as above; type: cell-based, Pseudomonas aeruginosa; conditions: log decrease vs untreated control; 4 × MIC, 10 min; CTAB 10 μM
Description: as §3

[9] = tested on: P. aeruginosa PA14; test: as above; type: cell-based, Pseudomonas aeruginosa; conditions: log decrease vs untreated control; 4 × MIC, 10 min; CTAB 10 μM
Description: as §3

[10] = tested on: P. mirabilis HI4320; test: as above; type: cell-based, Proteus mirabilis; conditions: log decrease vs untreated control; 4 × MIC, 10 min; CTAB 10 μM
Description: as §3

[11] = tested on: cell membrane of P. aeruginosa PAO1; test: BacLight membrane integrity assay; type: cell-based, Pseudomonas aeruginosa; conditions: PRMSE, catechol at 4 × MIC for 10 min; CTAB 10 μM; untreated = 100
Description: as §3

[12] = tested on: cell membrane of P. aeruginosa PA14; test: BacLight membrane integrity assay; type: cell-based, Pseudomonas aeruginosa; conditions: PRMSE, catechol at 4 × MIC for 10 min; CTAB 10 μM; untreated = 100
Description: as §3

[13] = tested on: P. aeruginosa PAO1; test: Checkerboard microdilution assay (growth inhibition synergy); type: cell-based, Pseudomonas aeruginosa; conditions: carbenicillin/PRMSE combination; FIC of the labelled component
Description: (§4) The checkerboard microdilution assay is used for evaluation of in vitro antimicrobial synergy between two compounds (i.e., antibiotic/PRMSE, antibiotic/pure phenolic compound, and pure phenolic compounds with each other). Two-fold serial dilutions are prepared in MHB-II for each of the two compounds under study. The serial dilutions are then loaded into 96 well plates to achieve combinations having different concentrations of each of the two compounds. Each well is subsequently inoculated with 10^6 CFU mL^−1 of the desired bacterial strain and incubated at 37° C. for 18 h under static conditions. The Fractional Inhibitory Concentration Index (FICI) for each combination is calculated by using the following formula: FICcomponent 1=MICcomponent 1, in combination/MICcomponent 1,alone FICI=FICcomponent 1+FICcomponent 2
(§5) The FICIs are interpreted as follows: FICI of […] (synergy); 0.5<FICI ≤1 (no interaction/indifference); FICI of >4 (antagonism).

[14] = tested on: P. aeruginosa PA14; test: as above; type: cell-based, Pseudomonas aeruginosa; conditions: carbenicillin/PRMSE combination; FIC of the labelled component
Description: as §4, §5

[15] = tested on: P. aeruginosa PAO1; test: Determination of minimum inhibitory concentration (MIC); type: cell-based; conditions: Pseudomonas aeruginosa, PAO1; antibiotic alone; MHB-II, 37° C., 18 h; read-out: MIC
Description: (§6) A range of concentration of antibiotics, ciprofloxacin (0.0003-0.25 μg mL^−1) and carbenicillin (0.5-512 μg mL^−1), are chosen due to their known potency against all four bacterial strains. Dilutions are prepared in flat bottom, 96 well microtitre plates (Falcon™, Corning™, Fisher Scientific, ON, Canada). Each well of a microtitre plate is then inoculated with the desired bacterial strain (grown in MHB-II and diluted to […]) and the plate is incubated at 37° C. for 18 h under static conditions. Bacterial growth is assessed by (i) monitoring the optical density of the cell suspension in each well at 600 nm (OD600 nm), and (ii) the resazurin microtitre plate assay. In the resazurin microtitre plate assay, each well of a microtitre plate is supplemented with 20 μM resazurin, incubated in the dark for 20 min at room temperature, followed by fluorescence measurements at ex/em 570/590 nm using a TECAN Infinite M200 Pro microplate reader (Tecan Group Ltd., Switzerland). The lowest concentration of a compound able to prevent increase in OD600 nm and resazurin fluorescence intensity is recorded as the MIC for that compound.

[16] = tested on: P. aeruginosa PA14; test: as above; type: cell-based; conditions: Pseudomonas aeruginosa, PA14; antibiotic alone; MHB-II, 37° C., 18 h; read-out: MIC
Description: as §6

N#CC(C#N)=NNc1cccc(Cl)c1 [CCCP, carbonyl cyanide m-chlorophenylhydrazone, reference compound]
Efflux pump activity [1]: 15.8%
% EtBr efflux [2]: 19.3%
Efflux pump activity [3]: 17%
Efflux pump activity [4]: 14.5%

CCCCCCCCCCCCCCCC[N+](C)(C)C.[Br-] [CTAB, cetyltrimethyl-ammonium bromide, reference compound]
% cells with uncompromised membrane [5]: 0%
% cells with uncompromised membrane (BacLight assay) [6]: 0%
Bacterial colony forming ability (Δ log CFU mL^−1) [7]: 5.7 Δ log CFU mL^−1
Bacterial colony forming ability (Δ log CFU mL^−1) [8]: 5.1 Δ log CFU mL^−1
Bacterial colony forming ability (Δ log CFU mL^−1) [9]: 4.9 Δ log CFU mL^−1
Bacterial colony forming ability (Δ log CFU mL^−1) [10]: 4.5 Δ log CFU mL^−1
% cells with uncompromised membrane [11]: 0%
% cells with uncompromised membrane [12]: 0%

CC1(C)S[C@@H]2[C@H](NC(=O)C(C(=O)O)c3ccccc3)C(=O)N2[C@H]1C(=O)O (stereo partly shown) [carbenicillin, reference compound]
FIC [13]: 0.13
FIC [14]: 0.063
MIC [15]: 64 µg/mL (≈ 169 µM)
MIC [16]: 128 µg/mL (≈ 338 µM)
